Measured values taken from patent US8772511B2, “Azabicyclic carbamates and their use as alpha-7 nicotinic acetylcholine receptor agonists” (Bayer Intellectual Property GmbH, priority 2002, dated 2014).
Structures can show the parent of a compound that is named as a salt. Where two headings read alike, the source gives them in different places.

Assays:
α7 nAChR = α7 nAChR (Rattus norvegicus (Rat), UniProt Q05941); assay: Affinity for α7 nAChR by inhibition of [3H]-methyllycaconitine binding to rat brain membranes
α7 nAChR, sequence (Q05941 23-502 limits assumed): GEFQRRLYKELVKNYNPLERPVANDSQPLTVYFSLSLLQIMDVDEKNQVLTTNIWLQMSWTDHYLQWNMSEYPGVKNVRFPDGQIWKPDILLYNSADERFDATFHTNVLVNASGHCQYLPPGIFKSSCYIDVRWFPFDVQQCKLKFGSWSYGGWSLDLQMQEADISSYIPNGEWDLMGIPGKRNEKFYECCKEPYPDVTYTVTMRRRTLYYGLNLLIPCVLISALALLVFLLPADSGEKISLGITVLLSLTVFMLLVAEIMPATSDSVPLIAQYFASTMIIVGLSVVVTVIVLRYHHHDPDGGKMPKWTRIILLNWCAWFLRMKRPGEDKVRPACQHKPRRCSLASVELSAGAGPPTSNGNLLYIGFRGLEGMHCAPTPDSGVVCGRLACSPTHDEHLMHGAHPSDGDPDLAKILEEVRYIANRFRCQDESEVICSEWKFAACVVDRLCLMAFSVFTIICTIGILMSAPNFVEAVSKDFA
Description: 1. Determination of the Affinity of Test Substances for α7 nAChR by Inhibition of [^3H]-Methyllycaconitine Binding to Rat Brain Membranes
The [^3H]-methyllycaconitine binding assay is a modification of the method described by Davies et al. in Neuropharmacol. 1999, 38, 679-690.
Rat brain tissue (hippocampus or whole brain) is homogenized in aqueous homogenization buffer (10% w/v, 0.32 M sucrose, 1 mM EDTA, 0.1 mM phenylmethylsulfonyl fluoride (PMSF), 0.01% (w/v) NaN3, pH 7.4, 4° C.) at 600 rpm in a glass homogenizer. The homogenate is centrifuged (1000×g, 4° C., 10 min) and the supernatant is removed. The pellet is resuspended (20% w/v) and the suspension is centrifuged (1000×g, 4° C., 10 min). The two supernatants are combined and centrifuged (15 000×g, 4° C., 30 min). The pellet obtained in this way is referred to as the P2 fraction.
The P2 pellet is suspended in binding buffer (50 mM Tris-HCl, 1 mM MgCl2, 120 mM NaCl, 5 mM KCl, 2 mM CaCl2, pH 7.4), and the suspension is centrifuged (15 000×g, 4° C., 30 min), twice.
The residue is resuspended in binding buffer to a concentration of […] and incubated in a volume of 250 μl (amount of membrane protein 0.4 mg) in the presence of 2 nM [3H]-methyllyeaconitine, 0.1% (w/v) BSA (bovine serum albumin) and various concentrations of the test substance at 21° C. for 60 min.
Incubation is then carried out in the presence of 1 μM α-bungarotoxin or 100 μM nicotine or 10 μM MLA (methyllycaconitine). The incubation is stopped by adding 4 ml of PBS (20 mM Na2HPO4, 5 mM KH2PO4, 150 mM NaCl, pH 7.4, 4° C.) and filtering through type A/E glass fiber filters (Gelman Sciences) which have previously been placed in 0.3% (v/v) polyethyleneimine (PEI) for 3 h. The filters are washed twice with 4 ml of PBS (4° C.), and the bound radioactivity is determined by scintillation measurement. All the assays are carried out in triplicate. The dissociation constant Ki of the test substance was determined from the IC50 of the compounds (concentration of the test substance at which 50% of the ligand bound to the receptor is displaced), the dissociation constant KD and the concentration L of [^3H]-methyllycaconitine using the equation Ki=IC50/(1+L/KD).

[1] = target: recombinant human 5-HT3 receptor (Homo sapiens (Human), UniProt P46098); assay: Affinity for 5-HT3 receptors through inhibition of [3H]GR65630 binding
recombinant human 5-HT3 receptor, sequence (P46098 24-478): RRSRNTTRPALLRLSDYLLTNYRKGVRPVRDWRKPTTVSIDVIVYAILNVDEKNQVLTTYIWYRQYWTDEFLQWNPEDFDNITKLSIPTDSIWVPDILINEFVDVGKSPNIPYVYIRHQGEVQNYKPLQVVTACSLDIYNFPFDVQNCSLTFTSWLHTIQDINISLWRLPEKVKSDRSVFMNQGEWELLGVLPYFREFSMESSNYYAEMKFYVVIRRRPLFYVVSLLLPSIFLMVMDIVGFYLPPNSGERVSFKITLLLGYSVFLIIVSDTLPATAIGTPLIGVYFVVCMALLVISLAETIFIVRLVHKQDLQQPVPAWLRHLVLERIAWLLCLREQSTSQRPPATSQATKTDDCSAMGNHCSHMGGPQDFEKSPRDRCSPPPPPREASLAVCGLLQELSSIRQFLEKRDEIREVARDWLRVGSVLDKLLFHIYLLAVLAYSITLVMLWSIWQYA
Description: 2. Determination of the Affinity of Test Substances for 5-HT3 Receptors Through Inhibition of [^3H]GR65630 Binding
Membranes from HEK293 cells which express recombinant human 5-HT3 receptor (RB-HS3, Receptor Biology, Inc., MD, USA) are diluted in accordance with the manufacturer's instructions in incubation buffer (50 mM Iris base, pH 7.4, 5 mM MgCl2, 0.5 mM EDTA, 0.1% (w/v) ascorbic acid, 10 μM pargyline and incubated in a volume of 200 μl (amount of membrane protein 3 μg) in the presence of 0.5 nM of the selective 5-HT3 receptor radio ligand [^3H]-GR65630 (NET 1011, Du Pont) and various concentrations of the test substance at 21° C. for 60 min. The nonspecific binding is determined by incubation in the presence of 100 μM 5-HT (5-hydroxytryptamine). The incubation is stopped by filtering through type A/E glass fiber filters (Gelman Sciences) or GF/B filters (Whatman) which have previously been placed in 0.3% (v/v) polyethyleneimine (PEI) for at least 1 h. The filters are washed three times with 3 ml of washing buffer (50 mM Tris-HCl, pH 7.4; 4° C.), and the bound radioactivity is determined by scintillation measurement. All the assays are carried out in triplicate. The dissociation constant Ki of the test substance is determined from the IC50 of the compounds (concentration of the test substance at which 50% of the ligand bound to the receptor is displaced), the dissociation constant KD and the concentration L of [^3H]GR65630 (Ki=IC50/(1+L/KD)).

[2] = [3H]-methyllycaconitine displacement, rat brain membranes, read-out: Ki
[3] = [3H]GR65630 displacement, membranes from HEK293 cells expressing human 5-HT3 receptor, read-out: Ki

Row | SMILES | Ki (α7 nAChR; [2]) [nM] | Ki [1] [nM] | Ki (α7 nAChR) [nM] | Ki [1, 3] [nM]
1 | COc1ccc(NC(=O)Nc2ccc3cc(C(=O)N[C@H]4CN5CCC4CC5)sc3c2)cc1 [Example 4, N-[(3R)-1-Azabicyclo[2.2.2]oct-3-yl]-6-({[(4-methoxyphenyl)amino]carbonyl}-amino)-1-benzothiophene-2-carboxamide hydrochloride] | 2.1 |  |  | 
2 | O=C(NCCc1ccccc1)Nc1ccc2cc(C(=O)N[C@H]3CN4CCC3CC4)sc2c1 [Example 5, N-[(3R)-1-Azabicyclo[2.2.2]oct-3-yl]-6-({[(2-phenylethyl)amino]carbonyl}amino)-1-benzothiophene-2-carboxamide hydrochloride] | 22 | 12000 |  | 
3 | N#Cc1cccc(NC(=O)Nc2ccc3cc(C(=O)N[C@H]4CN5CCC4CC5)sc3c2)c1 [Example 6, N-[(3R)-1-Azabicyclo[2.2.2]oct-3-yl]-6-({[(3-cyanophenyl)amino]carbonyl}amino)-1-benzothiophene-2-carboxamide hydrochloride] |  |  | 7.9 | 1700
4 | O=C(Nc1ccc2cc(C(=O)N[C@H]3CN4CCC3CC4)sc2c1)Nc1c(F)cccc1F [Example 11, N-[(3R)-1-Azabicyclo[2.2.2]oct-3-yl]-6-({[(2,6-difluorophenyl)amino]carbonyl}-amino)-1-benzothiophene-2-carboxamide hydrochloride] |  |  | 0.4 | 5500
5 | COc1cc(NC(=O)Nc2ccc3cc(C(=O)N[C@H]4CN5CCC4CC5)sc3c2)cc(OC)c1OC [Example 14, N-[(3R)-1-Azabicyclo[2.2.2]oct-3-yl]-6-({[(3,4,5-trimethoxyphenyl)amino]-carbonyl}amino)-1-benzothiophene-2-carboxamide hydrochloride] |  | 6900 |  | 
6 | COc1cccc(NC(=O)Nc2ccc3cc(C(=O)N[C@H]4CN5CCC4CC5)sc3c2)c1 [Example 16, N-[(3R)-1-Azabicyclo[2.2.2]oct-3-yl]-6-[({[3-methoxyphenyl]amino}carbonyl)-amino]-1-benzothiophene-2-carboxamide hydrochloride] |  |  | 4.3 | 2100
7 | O=C(Nc1ccccc1)Nc1cccc2cc(C(=O)N[C@H]3CN4CCC3CC4)sc12 [Example 21, 7-[(Anilinocarbonyl)amino]-N-[(3R)-1-azabicyclo[2.2.2]oct-3-yl]-1-benzothiophene-2-carboxamide hydrochloride] |  |  | 15 | 1600
8 | COc1ccc(NC(=O)Nc2ccc3cc(C(=O)N[C@H]4CN5CCC4CC5)oc3c2)cc1 [Example 22, N-[(3R)-1-Azabicyclo[2.2.2]oct-3-yl]-6-({[(4-methoxyphenyl)amino]carbonyl}-amino)-1-benzofuran-2-carboxamide hydrochloride] | < 1 |  |  | 
